Patent publication US20040010116A1, “Minicell display and products therefrom” (Children's Medical Center Corp., priority 2002, published 2004)
Where no end group is shown, it is not given here.

What was measured:
[1] = target: T1, alpha4 integrin (Homo sapiens, UniProt P13612); test: alpha4 integrin binding
T1 sequence (P13612 34-1032): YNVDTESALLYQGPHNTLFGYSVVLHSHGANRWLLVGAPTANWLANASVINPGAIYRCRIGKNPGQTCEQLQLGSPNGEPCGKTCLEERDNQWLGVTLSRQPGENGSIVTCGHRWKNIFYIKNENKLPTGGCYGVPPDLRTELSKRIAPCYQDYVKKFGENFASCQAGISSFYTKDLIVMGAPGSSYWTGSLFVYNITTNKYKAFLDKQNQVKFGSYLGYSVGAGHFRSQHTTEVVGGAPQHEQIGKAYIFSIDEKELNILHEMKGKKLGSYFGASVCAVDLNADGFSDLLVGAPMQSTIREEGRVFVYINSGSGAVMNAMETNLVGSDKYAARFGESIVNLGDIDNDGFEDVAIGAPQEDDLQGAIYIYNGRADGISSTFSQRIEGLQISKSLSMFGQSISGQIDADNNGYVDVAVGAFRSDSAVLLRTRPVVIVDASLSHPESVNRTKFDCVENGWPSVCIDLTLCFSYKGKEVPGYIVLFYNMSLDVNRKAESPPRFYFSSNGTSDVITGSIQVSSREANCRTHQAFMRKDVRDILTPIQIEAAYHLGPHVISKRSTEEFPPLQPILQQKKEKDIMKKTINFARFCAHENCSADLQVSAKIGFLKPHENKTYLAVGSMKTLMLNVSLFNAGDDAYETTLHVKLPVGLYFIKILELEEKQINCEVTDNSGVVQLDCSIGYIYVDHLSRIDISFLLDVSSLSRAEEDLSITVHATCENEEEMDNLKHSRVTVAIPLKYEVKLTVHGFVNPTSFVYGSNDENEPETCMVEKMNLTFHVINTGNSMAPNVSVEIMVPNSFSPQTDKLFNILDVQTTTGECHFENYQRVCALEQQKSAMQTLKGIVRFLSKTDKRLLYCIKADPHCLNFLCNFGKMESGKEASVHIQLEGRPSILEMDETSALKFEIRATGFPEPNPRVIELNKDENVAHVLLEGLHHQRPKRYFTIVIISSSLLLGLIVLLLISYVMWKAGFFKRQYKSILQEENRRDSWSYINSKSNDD
From the text: (§1) Several screening methods were utilized. Most of the methods follow a similar protocol outlined below.
(§2) A tertiary library may be constructed from a third round of screening and those peptides selected may be used in functional screening assays to further isolate peptides of specific activity.

[2] = Tolerability of the peptide in animals; format: in vivo
Procedure: To evaluate that effectiveness of SEQ ID NO: 54 against primary tumor growth and metastasis, 1×10^7 cells were injected subcutaneously into the left flank of nude mice. After six weeks the resulting tumors were aseptically dissected out, minced and 1 mm-tumor pieces were transplanted into the right flank of nude mice using a trocar needle. Two weeks later, when tumors were measured approximately 10 mm, mice were assigned to different experimental groups. One group of 24 animals bearing MDA-MB-231 xenografts were divided into 3 groups that received the following treatments one group of 8 animals received a weekly injection of apoptotic peptide (0.3-100 μg/kg for SEQ ID NO: 54) through the peritoneal cavity. […] Tumors were measured once every two days with microcalipers, and tumor volume was calculated as length×width×height×0.5236. Body weights were measured on the day of the injection, 4 days later and weekly thereafter. […] Total leukocyte and platelet counts were determined manually using a hemocytometer. […] Treatment-related toxicity was evaluated based on the differences in body weight, liver and kidney marker enzymes and the hematological parameters between treatment groups. […] Liver, heart, uterus, ovaries, lungs spinal cord and all long bones were evaluated histologically. […]

[3] = tested on: eosinophils; test: Activation of apoptosis in eosinophils; format: cell-based; settings: versus control
From the text: SEQ ID NO: 56 (Acetylated-GRGENPS) activates apoptosis in eosinophils. […] Fibronectin in combination with SEQ ID NO: 56 further increased the percentage of apoptotic cells by roughly 70%.

[4] = tested on: cell; test: Cell entry of peptides; format: cell-based
From the text: as §1, §2

[5] = tested on: cell/collagen interaction; test: Cell/collagen interaction; format: cell-based
From the text: as §1, §2

[6] = tested on: tumor cells; test: Apoptosis of tumor cells; format: cell-based
From the text: as §1, §2

[7] = tested on: Endothelial cell; test: Endothelial cell attachment; format: cell-based
From the text: as §1, §2

[8] = tested on: melanoma cell; test: Melanoma cell attachment; format: cell-based
From the text: as §1, §2

[9] = Heparin binding
From the text: as §1, §2

[10] = tested on: collagenase; test: Collagenase induction; format: cell-based
From the text: as §1, §2

[11] = tested on: tumor cells; test: Homotypic aggregation of tumor cells; format: cell-based
From the text: as §1, §2

[12] = tested on: neutrophils, endothelium, fibrosarcomas melanoma; test: Neutrophils, endothelium, fibrosarcomas, melanoma attachment; format: cell-based
From the text: as §1, §2

[13] = tested on: cell-cell; test: Cell-cell adhesion; format: cell-based
From the text: as §1, §2

[14] = target: CD44 (Homo sapiens, UniProt P16070); test: CD44 interaction with GAG; format: binding
CD44, sequence (P16070 21-742, species assumed): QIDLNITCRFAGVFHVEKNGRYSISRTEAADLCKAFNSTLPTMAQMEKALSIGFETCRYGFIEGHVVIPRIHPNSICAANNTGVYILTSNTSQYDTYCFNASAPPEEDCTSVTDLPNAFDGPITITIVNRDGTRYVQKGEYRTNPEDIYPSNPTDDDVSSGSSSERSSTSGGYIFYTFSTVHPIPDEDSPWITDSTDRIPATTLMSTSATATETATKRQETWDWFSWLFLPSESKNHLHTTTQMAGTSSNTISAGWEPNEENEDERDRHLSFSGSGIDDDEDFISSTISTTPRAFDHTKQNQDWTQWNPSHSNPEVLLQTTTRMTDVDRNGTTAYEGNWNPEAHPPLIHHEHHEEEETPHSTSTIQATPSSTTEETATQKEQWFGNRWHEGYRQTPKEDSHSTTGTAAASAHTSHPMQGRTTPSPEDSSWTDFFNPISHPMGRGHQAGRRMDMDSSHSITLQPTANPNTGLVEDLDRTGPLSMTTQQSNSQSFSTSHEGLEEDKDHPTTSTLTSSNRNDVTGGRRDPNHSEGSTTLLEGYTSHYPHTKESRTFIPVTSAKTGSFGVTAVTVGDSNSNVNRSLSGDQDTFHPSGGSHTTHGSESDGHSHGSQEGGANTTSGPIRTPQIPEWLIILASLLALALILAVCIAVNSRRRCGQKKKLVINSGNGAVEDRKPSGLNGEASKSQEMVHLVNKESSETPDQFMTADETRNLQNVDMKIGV
From the text: as §1, §2

[15] = tested on: fibroblast; test: Fibroblast attachment; format: cell-based
From the text: as §1, §2

[16] = Induction of apoptosis and cell death; format: cell-based
[17] = tested on: integrin signaling, CD44 signaling, rhoB; test: Integrin/CD44 signaling and microtubule stabilization in vivo
[18] = tested on: invasion complex; test: Invasion complex binding, in vitro studies
From the text: SEQ ID NO: 55 ([…] is a peptide derived and modified from a parent peptide isolated using minicell display. The design objective for the parent peptide was to generate a mini protein with the mechanistic advantages of taxol, but devoid of the toxicity and side effects of taxol-type drugs.

[19] = tested on: β integrin; test: β integrin binding
From the text: as §1, §2

[20] = tested on: macrophage; test: Macrophage recruitment by osteopontin, C5a, fibronectin (activity assay of minicell display peptides); format: cell-based
From the text: as §1, §2

Substance: AADVESPS [SEQ ID NO:22]
- FUNCTIONAL ACTIVITY: alpha4 integrin binding [1]: Inhibits alpha4 integrin

Substance: Ac-DKMLDP [SEQ ID NO: 54, DKMLDP]
- Therapeutic index [2]: high
- Tolerability of relatively high doses ([2]; more than ten fold the optimum effective dose): no deleterious effects

Substance: Acetylated-GRGENPS (Ac-GRGENPS) [SEQ ID NO: 56]
- Increase of the percentage of apoptotic cells [3]: roughly 20%

Substance: CVVVLVL [SEQ ID NO: 19]
- FUNCTIONAL ACTIVITY: cell entry of peptides [4]: Promotes cell entry of peptides

Substance: DADQKFGFC [SEQ ID NO:12]
- FUNCTIONAL ACTIVITY: cell/collagen interaction [5]: Inhibits cell/collagen

Substance: DDDRKWGFC [SEQ ID NO:8]
- FUNCTIONAL ACTIVITY: cell/collagen interaction [5]: Inhibits cell/collagen

Substance: DGGRGDSLGWYRRGRGGARRSKAKKAAAKNNQKSEPLIGRKKT [SEQ ID NO:52]
- FUNCTIONAL ACTIVITY: Apoptotic to tumor cells [6]: Apoptotic to tumor cells

Substance: DPGYIGSR [SEQ ID NO:41]
- FUNCTIONAL ACTIVITY: endothelial cell attachment [7]: Inhibits endothelial cell

Substance: DQDQRWGYC [SEQ ID NO:9]
- FUNCTIONAL ACTIVITY: cell/collagen interaction [5]: Inhibits cell/collagen

Substance: DRDRAWGYC [SEQ ID NO:10]
- FUNCTIONAL ACTIVITY: cell/collagen interaction [5]: Inhibits cell/collagen

Substance: DRQWGLC [SEQ ID NO:11]
- FUNCTIONAL ACTIVITY: cell/collagen interaction [5]: Inhibits cell/collagen

Substance: DRYLKFRPV [SEQ ID NO:38]
- FUNCTIONAL ACTIVITY: melanoma cell attachment [8]: Inhibits melanoma cell

Substance: DSVAYGLKSK [SEQ ID NO:15]
- FUNCTIONAL ACTIVITY: heparin binding [9]: Inhibits heparin binding

Substance: DSVAYGLKSRSK [SEQ ID NO:16]
- FUNCTIONAL ACTIVITY: heparin binding [9]: Inhibits heparin binding

Substance: DSVVYGLRSK [SEQ ID NO:14]
- FUNCTIONAL ACTIVITY: heparin binding [9]: Inhibits heparin binding

Substance: EPEESDVGGAADYP [SEQ ID NO:25]
- FUNCTIONAL ACTIVITY: alpha4 integrin binding [1]: Inhibits alpha4 integrin

Substance: ESHQKYGYCGGCDRNNP [SEQ ID NO:13]
- FUNCTIONAL ACTIVITY: cell/collagen interaction [5]: Inhibits cell/collagen

Substance: GRGDNPS [SEQ ID NO:35]
- FUNCTIONAL ACTIVITY: collagenase induction [10]: collagenase induction

Substance: HGRFILPWWYAFSPS [SEQ ID NO:48]
- FUNCTIONAL ACTIVITY: homotypic aggregation of tumor cells [11]: Inhibit homotypic aggregation

Substance: HKFVHWKKPVLPSQNNQ [SEQ ID NO:39]
- FUNCTIONAL ACTIVITY: melanoma cell attachment [8]: Inhibits melanoma cell

Substance: KGMNYTVR [SEQ ID NO:40]
- FUNCTIONAL ACTIVITY: neutrophils, endothelium, fibrosarcomas melanoma attachment [12]: Inhibits, neutrophils,

Substance: KKAKKSRRS [SEQ ID NO:49]
- FUNCTIONAL ACTIVITY: Anti-adhesion (cell-cell) [13]: Anti-adhesion (cell-cell)

Substance: KKGKKSKRS [SEQ ID NO:50]
- FUNCTIONAL ACTIVITY: Anti-adhesion (cell-cell) [13]: Anti-adhesion (cell-cell)

Substance: KNNQKSEPLIGRKKT [SEQ ID NO:43]
- FUNCTIONAL ACTIVITY: CD44 interaction with GAG [14]: Inhibits CD44 interaction with

Substance: KRSR [SEQ ID NO:53]
- FUNCTIONAL ACTIVITY: Apoptotic to tumor cells [6]: Apoptotic to tumor cells

Substance: LDSAS [SEQ ID NO:20]
- FUNCTIONAL ACTIVITY: alpha4 integrin binding [1]: Inhibits alpha4 integrin

Substance: LDSPPAALS [SEQ ID NO:21]
- FUNCTIONAL ACTIVITY: alpha4 integrin binding [1]: Inhibits alpha4 integrin

Substance: LVPSSKGRGDYLAQSQP [SEQ ID NO:36]
- FUNCTIONAL ACTIVITY: collagenase induction [10]: collagenase induction

Substance: PNGRGESLAY [SEQ ID NO:37]
- FUNCTIONAL ACTIVITY: fibroblast attachment [15]: Inhibits fibroblast attachment,
- FUNCTIONAL ACTIVITY: collagenase induction [10]: inhibits collagenase induction

Substance: PYAGRGDSVVYGLKKKNNQKAEPLIGRKKTR [SEQ ID NO: 55]
- Apoptosis and cell death [16]: induces apoptosis and cell death
- Integrin signaling versus CD44 signaling [17]: uncouple integrin signaling from CD44 signaling
- Microtubules ([17]; by down stream activation of rhoB): stabilization of microtubules
- Binding to the invasion complex [18]: binds to the invasion complex

Substance: QESPSGTDLLVAGSSP [SEQ ID NO:26]
- FUNCTIONAL ACTIVITY: alpha4 integrin binding [1]: Inhibits alpha4 integrin

Substance: RRSRSSTGKKQKSSQSRKTA [SEQ ID NO:51]
- FUNCTIONAL ACTIVITY: Anti-adhesion (cell-cell) [13]: Anti-adhesion (cell-cell)

Substance: SDV [SEQ ID NO:24]
- FUNCTIONAL ACTIVITY: alpha4 integrin binding [1]: Inhibits alpha4 integrin

Substance: TPVVPTVDTYDGRGDSLAY [SEQ ID NO:27]
- FUNCTIONAL ACTIVITY: β integrin binding [19]: β integrin binding

Substance: VLEP [SEQ ID NO:7]
- FUNCTIONAL ACTIVITY: macrophage recruitment by osteopontin, C5a, fibronectin [20]: Inhibitor of macrophage

Substance: VLPTPTPPGYLSSRSSR [SEQ ID NO:42]
- FUNCTIONAL ACTIVITY: endothelial cell attachment [7]: Inhibits endothelial cell

Substance: WTGGDDSGSPSSPS [SEQ ID NO:23]
- FUNCTIONAL ACTIVITY: alpha4 integrin binding [1]: Inhibits alpha4 integrin

Substance: YYWRQQQKSDPVVSRRRSPS [SEQ ID NO:44]
- FUNCTIONAL ACTIVITY: CD44 interaction with GAG [14]: Inhibits CD44 interaction with

Substance: fibronectin [reference compound]
- Change of the percentage of apoptotic cells (in words) [3]: decreased the percentage of apoptotic cells
